From paper PMC5223566, “The Benzopyrone Biochanin-A as a reversible, competitive, and selective monoamine oxidase B inhibitor” (BMC Complementary and Alternative Medicine, 2017)
Values joined by “and” are separate entries in the source; they are usually repeats but may differ in a detail not shown here. Identical values can stand only once. Like-named read-outs stand apart in the source and are kept apart here.

Columns and labels:
[1] = biological target: T1, recombinant human MAO-B (hMAO-B) (Homo sapiens, UniProt P27338); assay: hMAO-B continuous spectrophotometric assay (enzymatic H2O2 production); format: biochemical; details: for IC50: 3 mM benzylamine, 40 min preincubation at RT, ± SEM
T1 construct: purchased Sigma-Aldrich; host or cells: baculovirus infected insect cells
T1 sequence (P27338 1-520): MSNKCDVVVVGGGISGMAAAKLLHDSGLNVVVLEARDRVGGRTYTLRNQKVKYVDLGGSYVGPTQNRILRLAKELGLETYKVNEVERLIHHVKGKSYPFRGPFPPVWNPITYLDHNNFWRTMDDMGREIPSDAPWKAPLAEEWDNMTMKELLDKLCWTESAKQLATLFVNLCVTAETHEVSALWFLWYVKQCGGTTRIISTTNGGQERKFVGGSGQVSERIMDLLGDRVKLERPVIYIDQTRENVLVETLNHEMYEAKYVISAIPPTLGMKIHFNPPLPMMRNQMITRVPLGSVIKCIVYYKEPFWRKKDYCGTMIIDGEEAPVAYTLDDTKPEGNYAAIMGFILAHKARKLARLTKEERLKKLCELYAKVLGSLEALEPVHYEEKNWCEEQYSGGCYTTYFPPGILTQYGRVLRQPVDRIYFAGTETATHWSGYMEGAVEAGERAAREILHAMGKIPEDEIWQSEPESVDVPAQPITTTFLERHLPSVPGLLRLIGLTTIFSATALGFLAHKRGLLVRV
Protocol: (§1) A slightly modified continuous spectrophotometric assay [25] for measuring enzymatic H2O2 production was validated before the experiments. In this assay, the peroxidase chromogen reagent of 1 mM of vanillic acid and 500 μM 4-aminoantipyrine, and 4 U purpurogallin/mL of horseradish peroxidase (HRP) type-II in HBSS (pH 7.4) was prepared and validated with H2O2 standard curve. […] Isozymes were diluted to 0.7 U/mL final concentration by 10 mM HEPES in HBSS (pH 7.4). Substrates final concentrations were optimized to be 0.5 and 3 mM tyramine HCl and benzylamine HCl for hMAO-A and hMAO-B reactions. […] Stock solvents (ethanol or dimethyl sulfoxide) were kept ≤ 2% the final volume of all assays.
(§2) The six benzopyrones of 5 × final concentrations between 0 to 400 μM and PCSEE from 0 to 250 μg/mL of at least ten data points were prepared in HBSS (pH 7.4). […] Freshly prepared volumes of 50 μL of 2.5 × substrate and peroxidase chromogen mix (1:1) were added. Absorbance was immediately read at 490 nm by the Bio-Tek μQuant Monochromatic Microplate Spectrophotometer for time zero. H2O2 production progression for each enzyme was measured every 20 min for the duration of the assay. First read measurements and the blanks background were subtracted from all absorbance values.

[2] = biological target: T2, hMAO-B (Homo sapiens, UniProt P27338); assay: hMAO-B MAO-Glo luminescence assay; format: biochemical; set-up: purchased Sigma-Aldrich; host or cells: baculovirus infected insect cells; details: 10 μg/mL; MAO-Glo kit
T2 sequence (P27338 1-520): T1 sequence (P27338 1-520)
Protocol: A slightly modified continuous spectrophotometric assay for measuring enzymatic H2O2 production was validated before the experiments. In this assay, the peroxidase chromogen reagent of 1 mM of vanillic acid and 500 μM 4-aminoantipyrine, and 4 U purpurogallin/mL of horseradish peroxidase (HRP) type-II in HBSS (pH 7.4) was prepared and validated with H2O2 standard curve. The linearity of reaction on the instrument was confirmed to reach up to 1.76 nmol per reaction volume with R^2 of 0.9999. Isozymes were diluted to 0.7 U/mL final concentration by 10 mM HEPES in HBSS (pH 7.4). Substrates final concentrations were optimized to be 0.5 and 3 mM tyramine HCl and benzylamine HCl for hMAO-A and hMAO-B reactions. The assay was run with and without different standard MAOIs with different selectivities (DEP, CLORG, pirlindole, and rasagiline) and monitored for few hours. Isozymes were found stable within the time of incubation. Stock solvents (ethanol or dimethyl sulfoxide) were kept ≤ 2% the final volume of all assays.
A buffer of 12.5 μL was used to make equivalent blank volumes of wells without enzyme. […] Reporter luciferase detects reagent of 50 μL was incubated with each reaction for 20-30 min to inhibit the enzyme and produce luminescence. Arbitrary light units (ALU) signal changes were measured by Synergy HTX Multi-Reader from Bio-Tek and converted to percent control change.

[3] = biological target: T3, recombinant human MAO-A (hMAO-A) (Homo sapiens, UniProt P21397); assay: hMAO-A continuous spectrophotometric assay (enzymatic H2O2 production); format: biochemical; details: for RSA (relative selectivity for hMAO-A): hMAO-B IC50/hMAO-A IC50
T3 construct: purchased Sigma-Aldrich; host or cells: baculovirus infected insect cells
T3 sequence (P21397 1-527): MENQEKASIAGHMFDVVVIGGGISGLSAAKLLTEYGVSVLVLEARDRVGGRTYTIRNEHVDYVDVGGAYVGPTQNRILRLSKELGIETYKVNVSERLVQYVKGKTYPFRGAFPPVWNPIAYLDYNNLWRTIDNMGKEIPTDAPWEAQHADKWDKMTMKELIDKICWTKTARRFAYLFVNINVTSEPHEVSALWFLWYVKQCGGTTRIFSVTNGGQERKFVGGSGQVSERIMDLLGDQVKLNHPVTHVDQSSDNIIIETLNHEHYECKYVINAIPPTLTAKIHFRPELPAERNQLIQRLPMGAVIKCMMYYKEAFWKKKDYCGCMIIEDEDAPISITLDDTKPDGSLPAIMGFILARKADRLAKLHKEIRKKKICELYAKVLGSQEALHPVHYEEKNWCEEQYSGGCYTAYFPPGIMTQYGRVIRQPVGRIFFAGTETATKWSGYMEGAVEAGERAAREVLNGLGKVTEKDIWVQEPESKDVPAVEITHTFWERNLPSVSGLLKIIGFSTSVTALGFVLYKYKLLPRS
Protocol: as §1, §2

[4] = biological target: T2, hMAO-B; assay: Michaelis-Menten kinetics of hMAO-B; details: mixed enzyme inhibition model, GraphPad Prism; ± SEM
[5] = H2O2 scavenging activity assay; details: 15 μM H2O2; PCSEE and ascorbic acid 62.5, 125, 250 μg/mL; BIO-A 6.25, 12.5, 25 μg/mL
Protocol: The H2O2 scavenging activity of PCSEE and BIO-A at their highest used MAO inhibitory concentrations was investigated and compared to the standard scavenger L-ascorbic acid. […] Buffer substituted the H2O2 (n = 4) to make blank wells. Immediately, peroxidase chromogen-containing vanillic acid, 4-aminoantipyrine, and HRP type-II were prepared as in the MAO spectrophotometric assay and added as 25 μL per well. The developing color at 490 nm was optimally read within 15 min at RT using Bio-Tek Synergy HTX Multi-Reader absorbance.

[6] = biological target: T4, hMAO-A (Homo sapiens, UniProt P21397); assay: hMAO-A recovery after dilution (reversibility); format: biochemical
T4 construct: purchased Sigma-Aldrich; host or cells: baculovirus infected insect cells
T4 sequence (P21397 1-527): T3 sequence (P21397 1-527)

[7] = biological target: T2, hMAO-B; assay: hMAO-B recovery after dilution (reversibility); format: biochemical; set-up: purchased Sigma-Aldrich; host or cells: baculovirus infected insect cells
[8] = biological target: T4, hMAO-A; assay: hMAO-A MAO-Glo luminescence assay; format: biochemical; details: 10 μg/mL; MAO-Glo kit
[9] = spectrophotometric assay, 0.5 mM tyramine, 40 min preincubation at RT, ± SEM, read-out: hMAO-A IC50
[10] = 0.1 × IC50 after 100-fold dilution (diluted)
[11] = 1 × IC50 after 100-fold dilution (diluted)
[12] = recovery after dilution, monitored with time

CC(C)=CCc1c(O)cc2c(c1O)C(=O)C[C@@H](c1ccc(O)cc1)O2 [6-PN, 6-prenylnaringenin]
RSB (relative selectivity for hMAO-B) ([1]; hMAO-A IC50/hMAO-B IC50): 3.0 | IC50 ([1]; spectrophotometric assay): 17.9 ± 1.84 µM | relative effectiveness between isozymes, luminescence assay [2]: more effective against hMAO-B | IC50 [3, 9]: 54.53 ± 0.31 µM

COc1ccc(-c2coc3cc(O)cc(O)c3c2=O)cc1 [BIO-A, 5,7-dihydroxy-4'-methoxyisoflavone]
hMAO-B inhibition model alpha [4]: > 1 | H2O2 scavenging activity [5]: did not show any scavenging activities | % hMAO-A H2O2 production control [6, 10]: 90% | % hMAO-A H2O2 production control ([6]; 1 × IC50, undiluted): 44.5% | % hMAO-A H2O2 production control [6, 11]: 52% and ~ 50% | reversibility of hMAO-A inhibition [6, 12]: reversible inhibitor | % hMAO-B H2O2 production control [7, 10]: 80% | % hMAO-B H2O2 production control ([7]; 1 × IC50, undiluted): 36% | % hMAO-B H2O2 production control [7, 11]: 51% and ~ 50% | reversibility of hMAO-B inhibition [7, 12]: reversible inhibitor

C#CCN(C)[C@H](C)Cc1ccccc1 [DEP, selegiline, reference compound]
% hMAO-A H2O2 production control [6, 10]: 7%

O=c1ccc2ccc3occc3c2o1 [IPS, isopsoralen]
IC50 ([1]; spectrophotometric assay): 51 ± 0.24 µM | relative effectiveness between isozymes, luminescence assay [8]: more effective against hMAO-A | IC50 [3]: 20.6 ± 2.45 µM | RSA (relative selectivity for hMAO-A) [3]: 2.5

CC(C)=CCc1cc(-c2coc3cc(O)ccc3c2=O)ccc1O [NBI, neobavaisoflavone]
IC50 ([1]; spectrophotometric assay): 77.3 ± 10.6 µM | relative effectiveness between isozymes, luminescence assay [8]: more effective against hMAO-A | RSA (relative selectivity for hMAO-A) [3]: 1.2 | IC50 [3, 9]: 66.5 ± 5.66 µM

O=c1ccc2cc3ccoc3cc2o1 [PS, psoralen]
IC50 ([1]; spectrophotometric assay): 175 ± 50.9 µM | relative effectiveness between isozymes, luminescence assay [8]: more effective against hMAO-A | RSA (relative selectivity for hMAO-A) [3]: 2.0 | IC50 [3, 9]: 89 ± 5.74 µM

CC(C)=CCc1cc2c(cc1O)oc(=O)c1c3ccc(O)cc3oc21 [PSD, psoralidin]
hMAO-B inhibition (in words) ([1]; spectrophotometric assay, up to 400 μM, p < 0.001): partial inhibition | hMAO-A inhibition (in words) ([3]; spectrophotometric assay, up to 400 μM): no detectable inhibition

O=C1O[C@H]([C@@H](O)CO)C(O)=C1O [ascorbic acid, L-ascorbic acid, reference compound]
H2O2 scavenging activity [5]: complete scavenging activity
